Data from patent US4061637A, “Certain 4-aryl-5-(4-phenylpiperazino)alkyl-4-thiazolin-2-ones” (priority 1974, dated 1977).
In brackets after ≈: the same amount, converted by molar mass. Where a name gives a salt, the structure may show the parent alone.

Columns and labels:
[1] = Antagonism towards electric shock convulsions in the mouse; format: in vivo; conditions: po, 0.5 h, mouse, 35 volt, read-out: Anti-convulsion activity, electric shock, mouse, % att.; for inhibition in vivo at 26 mg/kg: 26 mg/kg os
Protocol: This is evaluated by observing the protection given by pretreatment with the drug (30 minutes) against tonic convulsions obtained by applying a 35 volt current to the eyeballs.

[2] = Acute toxicity rat LD50 iv; conditions: in vivo
[3] = Fibrillation induced by CaCl2 of the rat anaesthetised with urethane (anti-arrhythmic activity); format: in vivo; conditions: for selectivity ratio: in vivo, LD50 rat iv / ED50 CaCl2, read-out: I.T. (1), therapeutic index from the ratio LD50 rat iv/ED50; for ED50: rat anaesthetised with urethane, iv
Protocol: Fibrillation induced by CaCl2 of the rat anaesthetised with urethane (1 g/kg ip)
The method described by Malinow and colleagues (Rev. Argent. Cardiol., 19, 120, 1952) was followed, which consists of inducing cardiac fibrillation by administering intravenously 2 ml/kg of an 8% solution of CaCl2 in rats pretreated intravenously with scalar doses of anti-arrhythmics. The ED50 was calculated for each active drug.

[4] = Ulcers by constriction (stress) in the rat; format: in vivo; conditions: 4 h, rat; for responders at 10 mg/kg / inhibition in vivo at 10 mg/kg: 10 mg/kg ip
Protocol: The method described by Rossi and colleagues (Compt. Rend. Soc. Biol., 150, 2124, 1956) was followed in which the formation of gastric ulcers is induced by immobilising the animal, in a state of fast for 48 hours, in a net for a period of 4 hours.
The protection given by treatment with the drug under examination before the beginning of the constriction period is evaluated by counting both the ulcers and the number of subjects without ulcers.

[5] = Arrhythmias induced by electrical stimulation of the isolated rabbit atrium (anti-arrhythmic activity); conditions: TD / ED30, isolated rabbit atrium; read-out: I.T. (2), therapeutic index from the ratio TD/ED30
Protocol: (§1) The ED30 in the presence of scalar concentrations of anti-arrhythmic substances was measured.

[6] = test system: isolated rabbit atrium; experiment: as above; conditions: for EC30: Oryctolagus cuniculus, read-out: anti-arrhythmic activity, Electrical stimulation in isolated rabbit atrium ED30
Protocol: as §1

[7] = test system: nor-adrenalin; experiment: Antagonism towards a lethal dose of nor-adrenalin in the rat (α-adrenolytic activity); format: in vivo
Protocol: Antagonism towards a lethal dose of nor-adrenalin in the rat
The animals are treated with a dose of nor-adrenalin (0.5 mg/kg) which is 100% lethal in animals. The activity is calculated by the number of animals protected from death by prior administration of the drug under examination one hour before the agonist. Where possible the ED50 was calculated.

[8] = test system: Rabbit platelet aggregation; experiment: Rabbit platelet aggregation in vitro; format: cell-based; conditions: Oryctolagus cuniculus, rabbit PRP, aggregation by sodium adenosine diphosphate, read-out: Platelet anti-aggregation activity, rabbit in vitro ED50
Protocol: Rabbit platelet aggregation in vitro The method of […] (Pharmacology, 7, 115, 1972) was followed. Blood taken from conscious rabbits is centrifuged in the presence of sodium citrate (3.8%) at 350 g. for 10 minutes, so as to separate the plasma rich in platelets (PRP) from the rest. The aggregation of the platelets is carried out by bringing the PRP into contact with adequate doses of sodium adenosine diphosphate in the presence of a possible inhibitor or its carrier. The measurement of aggregation is made continuously by a turbidimetric method.

[9] = Inhibition of spontaneous motility in the mouse; format: in vivo; conditions: mouse; for ED50: po, 0.5 h, os, 30 minutes after treatment, read-out: Spontaneous motility inhibition mouse ED50
Protocol: This is evaluated by an actophotometric method, which consists of placing the mice, 30 minutes after oral treatment with the drug or the carrier, in a cage provided with a photoelectric cell counter and counting the number of times the photoelectric cell is passed during a 10 minute stay.

[10] = Pinching the tail of the mouse (systemic analgesic activity); format: in vivo; conditions: po, 0.5 h, mouse, 30 minutes; for inhibition in vivo at 26 mg/kg: 26 mg/kg os
Protocol: To evaluate the analgesic activity, the method described by Bianchi and colleagues (Brit. J. Pharmacol., 9, 280, 1954) was followed which consists of applying an arterial pincer to the base of the tail in animals treated orally 30 minutes previously with the drug under examination, observing that the control animals react to the pain by squealing.

[11] = Acute toxicity under LD50 mouse; conditions: in vivo, ip
[12] = Cataleptic activity in the mouse; format: in vivo; conditions: po; mouse, os; read-out: Cataleptic activity mouse ED50
[13] = Carrageen oedema in the conscious rat (anti-inflammatory activity); format: in vivo
Protocol: Anti-inflammatory activity was evaluated by the method of Winter and colleagues (Proc. Soc. Exp. Biol., 111, 544, 1962) by endoperitoneally injecting the product under examination one hour before inducing oedema by injecting 0.05 ml. of a 1% suspension of carrageen (intradermally into the plantar portion of a rear paw).
The difference between the volume of the paw determined plethysmographically one hour before and three hours after the carrageen gives a quantitative estimate of the activity of the product tested. Where possible, the ED30 was calculated.

[14] = read-out: Anti-ulcer activity, ulcers by stress in the rat, Protected rats %
[15] = read-out: Anti-ulcer activity, ulcers by stress in the rat, Reduction in ulcers %

| Structure (SMILES) | inhibition in vivo at 26 mg/kg [1] | LD50 [2] | selectivity ratio [3] | ED50 [3] | responders at 10 mg/kg [4, 14] | inhibition in vivo at 10 mg/kg [4, 15] | selectivity ratio [5] | EC30 [6] | TD (dose which abolishes the spontaneous contraction of the atrium) ([6]; rabbit) | IC50 [8] | ED50 [9] | inhibition in vivo at 26 mg/kg [10] | LD50 [11] | also measured |
| --- | --- | --- | --- | --- | --- | --- | --- | --- | --- | --- | --- | --- | --- | --- |
| CCN(CC)CCc1sc(=O)[nH]c1-c1ccc(F)cc1 [LR 602, 4-p-fluorophenyl-5-β-diethylaminoethyl-4-thiazolin-2-one] | 0% | 84 mg/kg | 24 | 3.5 mg/kg | 50% | 65% | 30 | 10 mg/L (≈ 34 µM) | 300 µg/mL | 800 mg/L (≈ 2720 µM) | 30 mg/kg | 30% | 125 mg/kg | α-adrenolytic activity lethal NA rat, percentage activity (ED50 lacking) ([7]; 7 mg/kg os): 0% |
| Cl.O=c1[nH]c(-c2ccc(F)cc2)c(CCN2CCCCC2)s1 [LR 617, 4-p-fluorophenyl-5-β-piperidinoethyl-4-thiazolin-2-one hydrochloride] | – | 62 mg/kg | 15 | 4 mg/kg | 10% | 17% | 69 | 4.3 mg/L | 300 µg/mL | 800 mg/L | 19.6 mg/kg | – | 100 mg/kg | α-adrenolytic activity lethal NA rat, percentage activity (ED50 lacking) ([7]; 5 mg/kg os): 0% |
| Cl.O=c1[nH]c(-c2ccc(F)cc2)c(CCN2CCOCC2)s1 [LR 618, 4-p-fluorophenyl-5-β-morpholinoethyl-4-thiazolin-2-one hydrochloride] | – | 130 mg/kg | 9 | 15 mg/kg | – | – | 8.5 | 35.4 mg/L | 300 µg/mL | 650 mg/L | 60 mg/kg | – | 250 mg/kg | ED50 [12]: 60 mg/kg; inhibition in vivo at 60 mg/kg ([1]; 60 mg/kg os): 10%; responders at 30 mg/kg ([4]; 30 mg/kg ip, read-out: Anti-ulcer activity, ulcers by stress in the rat, Protected rats %): 50%; inhibition in vivo at 30 mg/kg ([4]; 30 mg/kg ip, read-out: Anti-ulcer activity, ulcers by stress in the rat, Reduction in ulcers %): 71%; α-adrenolytic activity lethal NA rat, percentage activity (ED50 lacking) ([7]; 15 mg/kg os): 0%; inhibition in vivo at 60 mg/kg ([10]; 60 mg/kg os, read-out: Systemic analgesic activity, tail pinching in mouse, %): 40%; Anti-inflammatory activity carrageenin oedema rat, percentage activity (ED30 lacking) ([13]; 60 mg/kg ip): 9.8% |
| COc1ccc(-c2[nH]c(=O)sc2CCN(C)CCc2ccccc2)cc1 [LR 620, 4-p-methoxyphenyl-5-β-(N-methylphenylethylamino)-ethyl-4-thiazolin-2-one maleate] | 20% | 24 mg/kg | 12 | 2 mg/kg | 0% | 0% | 30 | 1 mg/L | – | 650 mg/L | – | 0% | 100 mg/kg | TD (dose which abolishes the spontaneous contraction of the atrium) ([6]; isolated rabbit atrium): 30 µg/mL; ED50 ([7]; Rattus norvegicus, po, 1 h, read-out: α-adrenolytic activity lethal NA rat ED50): 5 mg/kg; Spontaneous motility inhibition mouse, percentage activity (ED50 lacking) ([9]; 26 mg/kg os): 0%; ED30 ([13]; 1 h, ip, one hour before carrageen, read-out: Anti-inflammatory activity carrageenin oedema rat ED30): 36 mg/kg |
